The source of these data is paper PMC11923649, “Novel C-2 Aromatic Heterocycle-Substituted Triterpenoids Inhibit Hedgehog Signaling in GLI1 Overexpression Cancer Cells” (ACS Omega, 2025).

For series [1], the system named is K562 (chronic myelogenous leukemia). The experiment in a line: MTS cytotoxicity assay, 72 h, K562. The series is classed as cell-based. The following applies: Homo sapiens, Table 1. The method, boiled down:
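Cells were exposed to compounds for 72 h at 50–0.0975 μmol/L (2-fold dilutions), then MTS/phenazine methosulfate was added for 1–4 h. Absorbance read at 490 nm; IC50 derived from concentration-response.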

The test system of series [2] is Gli1 protein in A549 cells. The series can be described thus: Western blot of Gli1 in A549 cells, 24 h. It counts as cell-based, human. The following applies: A549, 24 h, immunoblot. The protocol:
In order to verify that compounds 11a and 11b inhibit the proliferation of A549 and DU-145 through Hh inhibition, we monitored the expression of Hh target genes in these cell lines (Figure 2). […] The decreased protein expression of Gli1 targets Cyclin D1, N-Myc, and Bcl-2 strongly indicates inhibition of its transcriptional activity, and their downregulation correlates with the data obtained by the U-87 MG-Gli-FLuc reporter assay. Importantly, these proteins are involved in cell cycle progression, proliferation, and survival. N-Myc amplification or deregulation of transcription, stability, and degradation is associated with many malignancies,[34] and the observed downregulation induced by 11a and 11b may reduce its oncogenic effect.
Figure 2 Effect of compounds 11a and 11b on the protein expression of the Gli1 transcription factor and its transcriptional targets in A549 (A) and DU145 (B) cells following 24 h of incubation. […]
Cells were washed with PBS and lysed on ice in 200 μL of RIPA (Radioimmunoprecipitation Assay) buffer for 30 min. Then, cell lysates were clarified by centrifugation (15000 rpm, 20 min, 4 °C), and the protein concentration in the collected supernatants was determined using a BCA method (Bicinchoninic Acid test). […] Luminescence signal detection was performed by using an Odyssey FC instrument (LI-COR Biosciences).

Series [3] can be described thus: Plasma protein binding, Rapid Equilibrium Dialysis. It counts as in vitro ADME. The following applies: read-out: Plasma protein binding % Fraction bound (converted). On the procedure: Data from a plasma protein binding study can inform about distribution into tissues of the body and reduction in the amount of drug available to be metabolized or cleared from the body. The measurement of plasma protein binding was performed using a Rapid Equilibrium Dialysis device; 11a and 11b compounds reported a percent of fraction bound around 90%. For the microsomal stability assay, human liver microsomes and NADPH cofactor were used to assess phase I oxidation by cytochrome P450 and flavin monooxygenases. The intrinsic clearance calculated from the microsomal stability assay indicated the medium category for both derivatives (Table 3).
Background: Equilibrium dialysis compares concentrations on both sides of a semipermeable membrane.

For series [4], the system named is MDR1. The series can be described thus: MDCK-MDR1 permeability assay. It counts as in vitro ADME. The following applies: dog, MDCK-MDR1; B–A / A–B. From the text:
(§1) The Parallel Artificial Membrane Permeability Assay (PAMPA) has emerged as a primary screen for determining passive transcellular permeability. […] The Caco-2 and MDCK-MDR1 permeability assays are established models of intestinal[37] and blood-brain barriers, respectively.[38]

Series [5] concerns MDCK-MDR1 monolayer. The series can be described thus: MDCK-MDR1 permeability assay. It counts as in vitro ADME.
Source text: as §1

Series [6] is described as follows: MDCK-MDR1 permeability assay. The series is classed as in vitro ADME. The note with it: dog, MDCK-MDR1; for Papp A→B: cm/s, read-out: MDCK-MDR1 Papp (×10^−6).
Source text: as §1

Series [7] is described as follows: Plasma stability. The series is classed as in vitro ADME. The following applies: human plasma.

In general, IC50 refers to the midpoint of a concentration-inhibition curve. Low readings indicate greater potency, high ones weaker potency. What is called efflux ratio is a quotient of directional permeabilities that is used to spot active efflux. For `C=C(C)[C@@H]1CC[C@]2(C(=O)O)CC[C@]3(C)C(CCC4[C@@]5(C)C=C(c6ccoc6)C(=O)C(C)(C)C5CC[C@]43C)C12` (some centres unmarked) [Compound 11b, 2-(Furan-3-yl)-3-oxolupa-1,20(29)-dien-28-oic acid], inhibition in series [1] was half-maximal at 9.6 µM (IC50). For the same compound, in series [2], the “Endogenous Gli1 protein level” value is on record as “inhibit the endogenous Gli1 protein level in a dose-dependent manner”. In series [3], the fraction unbound was about 0.1. In addition, in series [4], the efflux ratio came out at 2.46. Further, the “MDCK-MDR1 Active efflux” value in series [5] is “Yes”. Moreover, in series [6], the recovery worked out at 94.7% and the Papp A→B was 1.85 ×10⁻⁶ cm/s. In series [7], the “Plasma stability % Compound remaining 15 min” value amounted to 103%, the “Plasma stability % Compound remaining 30 min” value is 104% and the “Plasma stability % Compound remaining 60 min” value was determined as 103%.
`C=C(C)[C@@H]1CC[C@]2(C(=O)O)CC[C@]3(C)C(CCC4[C@@]5(C)C=C(c6ccco6)C(=O)C(C)(C)C5CC[C@]43C)C12` (some centres unmarked) [Compound 11a, 2-(Furan-2-yl)-3-oxolupa-1,20(29)-dien-28-oic acid] came in with an IC50 in series [1] of 6.3 µM. In addition, the “Endogenous Gli1 protein level” value in series [2] is recorded as “inhibit the endogenous Gli1 protein level in a dose-dependent manner”. For the same compound, in series [3], the fraction unbound is about 0.1. Further, the efflux ratio in series [4] turned out to be 1.53. Moreover, the “MDCK-MDR1 Active efflux” value in series [5] is “No (less than or very close to the limit of active and passive efflux (≤2))”. Besides, in series [6], the recovery is 90.4% and the Papp A→B stood at 9.15 ×10⁻⁶ cm/s. In series [7], the “Plasma stability % Compound remaining 15 min” value was found to be 103%, the “Plasma stability % Compound remaining 30 min” value is on record as 100% and the “Plasma stability % Compound remaining 60 min” value came to 95%.
